# In ChEMBL document CHEMBL4393655, “Evaluation of synthetic substituted 1,2-dioxanes as novel agents against human leishmaniasis” (Eur J Med Chem, 2019):
# What was measured:
# [1] = tested on: Leishmania donovani; assay: Antileishmanial activity against late log/stationary phase of promastigote stage of Leishmania donovani MHOM/NP/02/BPK282/0c14 assessed as parasite growth inhibition after 72 hrs by plate reader based Alamar blue assay; format: functional, organism-based
# [2] = tested on: Leishmania donovani; assay: Antileishmanial activity against promastigote stage of Leishmania donovani MHOM/IN/83/AG83 assessed as inhibition of parasite viability after 48 hrs by MTS assay; format: functional, organism-based; conditions: MHOM/IN/83/AG83, 48 h
# [3] = (§1) Cytotoxicity against African green monkey Vero cells after 72 hrs by plate reader based Alamar blue assay; format: cell-based; conditions: chlorocebus sabaeus, Vero cells
# [4] = Selectivity index, ratio of CC50 for African green monkey Vero cells to IC50 for Leishmania donovani MHOM/NP/02/BPK282/0c14; format: toxicity; conditions: for selectivity ratio: Vero cells, read-out: Ratio CC50/IC50
# [5] = tested on: Leishmania donovani; assay: Antileishmanial activity against promastigote stage of Leishmania donovani MHOM/ET/67/HU3 assessed as parasite growth inhibition after 3 days by MTT assay; format: functional, organism-based; conditions: MHOM/ET/67/HU3, 72 h
# [6] = tested on: Leishmania infantum; assay: Antileishmanial activity against promastigote stage of Leishmania infantum MHOM/PT/88/IMT151 as parasite growth inhibition after 48 hrs by MTT assay; format: functional, organism-based; conditions: MHOM/PT/88/IMT151, 48 h
# [7] = tested on: Leishmania infantum; assay: Antileishmanial activity against amastigote stage of Leishmania infantum MHOM/PT/88/IMT151 infected in human THP-1 cells assessed as parasite growth inhibition after 48 hrs by microscopic analysis; format: functional, organism-based; conditions: MHOM/PT/88/IMT151, THP-1, 48 h
# [8] = tested on: Leishmania donovani; assay: Antileishmanial activity against amastigote stage of Leishmania donovani MHOM/NP/02/BPK282/0c14 infected in human THP1 cells assessed as parasite growth inhibition after 72 hrs by Giemsa staining-based light microscopic analysis; format: functional, organism-based; conditions: MHOM/NP/02/BPK282/0c14, THP-1, 72 h
# [9] = tested on: Leishmania infantum; assay: Antileishmanial activity against late log/stationary phase of promastigote stage of Leishmania infantum MHOM/TN/80/IPT1 assessed as parasite growth inhibition after 72 hrs by plate reader based Alamar blue assay; format: functional, organism-based; conditions: MHOM/TN/80/IPT1, 72 h
# [10] = tested on: Leishmania tropica; assay: Antileishmanial activity against late log/stationary phase of promastigote stage of Leishmania tropica MHOM/SU/74/K27 assessed as parasite growth inhibition after 72 hrs by plate reader based Alamar blue assay; format: functional, organism-based; conditions: MHOM/SU/74/K27, 72 h
# [11] = tested on: Leishmania major; assay: Antileishmanial activity against late log/stationary phase of promastigote stage of Leishmania major MHOM/SU/73/5-ASKH assessed as parasite growth inhibition after 72 hrs by plate reader based Alamar blue assay; format: functional, organism-based
# [12] = Solubility of the compound; format: physicochemical
# [13] = tested on: Vero; assay: as §1; format: cell-based; conditions: chlorocebus sabaeus, vero, 72 h
# [14] = tested on: Leishmania donovani; assay: Antileishmanial activity against promastigote stage of Leishmania donovani NLB-065 assessed as parasite growth inhibition after 72 hrs by microscopic analysis; format: functional, organism-based; conditions: NLB-065, 72 h
# [15] = tested on: Leishmania donovani; assay: Antileishmanial activity against promastigote stage of Leishmania donovani assessed as parasite growth inhibition after 72 hrs by resazurin dye based assay; format: functional, organism-based
# [16] = Leishmania donovani, MHOM/NP/02/BPK282/0c14, 72 h
SMILES,"IC50 [1, 16] [µM]",CC50 at 72 h [3] [µM],selectivity ratio [4],further results
OC(Cn1cncn1)(Cn1cncn1)c1ccc(F)cc1F [FLUCONAZOLE],> 40,,,
CO[C@@]1(C)OOC(C)(C)C[C@H]1COCc1cn(CCC[P+](c2ccccc2)(c2ccccc2)c2ccccc2)nn1 (racemic),> 40,,,
C[C@@H]1CC[C@H]2[C@@H](C)C(=O)O[C@@H]3O[C@@]4(C)CC[C@@H]1[C@]32OO4 [ARTEMISININ],> 40,,,IC50 [2]: 100 to 160 µM
COC(=O)C1CC(c2ccccc2)(c2ccccc2)OOC1(C)O (centres undefined),> 40,,,
CCCCC1(CCCC)C[C@@H](C(=O)OC)[C@](C)(OC)OO1 (racemic),> 40,,,
CCCCC1(CCCC)C[C@@H](C(=O)OC)[C@@](C)(O)OO1 (racemic),> 40,,,
CCCCC1(CCCC)C[C@@H](CO)[C@](C)(OC)OO1 (racemic),> 40,,,
CCCCC1(CCCC)C[C@@H](CNCCCn2ccnc2)[C@@](CCCC)(OC)OO1 (racemic),6.2,32.5,5.2,
CCCCC1(CCCC)C[C@@H](CNCCCNc2ccnc3cc(Cl)ccc23)[C@@](C)(OC)OO1 (racemic),1.6,4,2.5,
C[C@@H]1[C@H](O)[C@@H](C)/C=C/C=C/C=C/C=C/C=C/C=C/C=C/[C@H](O[C@@H]2O[C@H](C)[C@@H](O)[C@H](N)[C@@H]2O)C[C@@H]2O[C@](O)(C[C@@H](O)C[C@@H](O)[C@H](O)CC[C@@H](O)C[C@@H](O)CC(=O)O[C@H]1C)C[C@H](O)[C@H]2C(=O)O [AMPHOTERICIN B],0.3,,667,IC50 [5]: 0.03 to 2.8 µM
NCC1CC[C@]2(CC1)OO[C@]1(O2)C2CC3CC(C2)CC1C3 (some centres undefined),,,,IC50 [6]: 3.51 µM; IC50 [7]: 108 µM
O=C1CCC2(CC1)OOC1(O2)C2CC3CC(C2)CC1C3 (centres undefined),,,,IC50 [6]: 9.35 µM; IC50 [7]: 79.8 µM
CO[C@@]1(C)OOC2(CC[C@H]3C[C@@H]2C3(C)C)C[C@H]1CNCCCn1ccnc1 (mixture of isomers),16.3,274,16.8,IC50 [8]: 23.5 µM; IC50 [9]: 6 µM; IC50 [10]: 35 µM; IC50 [11]: 15.5 µM
CO[C@]1(C)OOC2(CC[C@H]3C[C@@H]2C3(C)C)C[C@H]1CNCCCn1ccnc1 (mixture of isomers; form 1),,300,18.3,IC50 [1]: 16.4 µM
CO[C@@]1(C)OOC(C)(C)C[C@H]1CNCCCn1ccnc1 (racemic),> 40,,,
CO[C@@]1(C)OOC(c2ccc(F)cc2)(c2ccc(F)cc2)C[C@H]1CNCCCn1ccnc1 (racemic),12,93.6,7.8,
COc1ccc(N[C@@]2(C(F)(F)F)O[C@@H]3O[C@@]4(C)C[C@H]5[C@H](C)CC[C@@H]([C@H]2C)[C@@]35OO4)cc1,,,,IC50 [5]: 0.38 to 1.5 µM
CCCC[C@]1(OC)OOC(c2ccccc2)(c2ccccc2)C[C@H]1CNCCCn1ccnc1 (racemic),4.2,9.5,2.3,
CCCCC1(CCCC)C[C@@H](C(=O)OC)[C@@](C)(OC)OO1 (racemic),> 40,,,
CCCCC1(CCCC)C[C@@H](COCc2cn(CCC[P+](c3ccccc3)(c3ccccc3)c3ccccc3)nn2)[C@](C)(OC)OO1 (racemic),40,200,5,
C=CCO[C@@]1(C(F)(F)F)O[C@@H]2O[C@@]3(C)C[C@H]4[C@H](C)CC[C@@H]([C@H]1C)[C@@]24OO3,,,,IC50 [5]: 1.6 to 6.25 µM

SMILES,"IC50 [1, 16] [µM]",CC50 at 72 h [3] [µM],selectivity ratio [4],further results
CCCCC1(O)OOC(c2ccccc2)(c2ccccc2)CC1C(=O)OC (centres undefined),,,,solubility [12]: Insoluble
CCCCC1(CCCC)C[C@@H](COCc2cn(CCC[P+](c3ccccc3)(c3ccccc3)c3ccccc3)nn2)[C@@](C)(OC)OO1 (racemic),15.5,102,6.6,
CCCC[C@]1(OC)OOC(C)(C)C[C@H]1CNCCCn1ccnc1 (racemic),> 40,,,
COC1(C)OOC(c2ccccc2)(c2ccccc2)CC1CO (centres undefined),> 40,,,
COC(=O)C1CC(c2ccccc2)(c2ccccc2)OOC1(C)OC (centres undefined),> 40,,,
C[C@@H]1CC[C@H]2[C@@H](C)[C@](OO)(C(F)(F)F)O[C@@H]3O[C@@]4(C)C[C@@H]1[C@]32OO4,,,,IC50 [5]: 2.5 to 12.5 µM
CO[C@]1(C)OOC2(CC[C@H]3C[C@@H]2C3(C)C)C[C@H]1CNCCCn1ccnc1 (mixture of isomers; form 2),,,,IC50 [8]: 9.7 µM; IC50 [9]: 5 µM; CC50 [13]: 276 µM; IC50 [10]: 24 µM; IC50 [11]: 25 µM; IC50 [1]: 8 µM; Ratio CC50/IC50 ([4]; vero): 34.6
CCCCC1(CCCC)C[C@@H](CNCCCn2ccnc2)[C@@](C)(OC)OO1 (racemic),7.5,74.5,13.5,IC50 [8]: 12.2 µM; IC50 [9]: 3 µM; IC50 [10]: 8.9 µM; IC50 [11]: 11.8 µM
C[C@H]1[C@H](OC(=O)CCC(=O)O)O[C@@H]2O[C@@]3(C)CC[C@H]4[C@H](C)CC[C@@H]1[C@@]24OO3 [SODIUM ARESUNATE],> 40,,,IC50 [14]: 12.1 µM
CCCCCCCCCCCCCCCCOP(=O)([O-])OCC[N+](C)(C)C [MILTEFOSINE],,,,IC50 [5]: 1.9 to 68.1 µM
CCCCC1(CCCC)C[C@@H](CO)[C@@](C)(OC)OO1 (racemic),> 40,,,
CCN(CC)CCCCCCNc1cc(OC)cc2c(C)ccnc12 [SITAMAQUINE],,,,IC50 [5]: 36.1 to 179 µM
CCCCC1(CCCC)C[C@@H](CNCCCn2cncn2)[C@@](C)(OC)OO1 (racemic),> 40,,,
C[C@H]1[C@@H](O)O[C@@H]2O[C@@]3(C)CC[C@H]4[C@H](C)CC[C@@H]1[C@@]24OO3 [ARTENIMOL],,,,IC50 [5]: 4.1 to 20.2 µM
CO[C@@]1(C)OOC(c2ccccc2)(c2ccccc2)C[C@H]1CNCCCn1ccnc1 (racemic),7.5,50,6.7,
NC[C@@H]1O[C@H](O[C@H]2[C@@H](O)[C@H](O[C@@H]3[C@@H](O)[C@H](N)C[C@H](N)[C@H]3O[C@H]3O[C@H](CO)[C@@H](O)[C@H](O)[C@H]3N)O[C@@H]2CO)[C@H](N)[C@@H](O)[C@@H]1O [PAROMOMYCIN],,,,IC50 [15]: 19.7 to 28.1 µM
CCCCC1(CCCC)C[C@@H](COCc2cn(CC(O)(Cn3cncn3)c3ccc(F)cc3F)nn2)[C@@](C)(OC)OO1 (mixture of isomers),16,195,12.2,IC50 [8]: 13 µM; IC50 [9]: 12 µM; IC50 [10]: 38 µM; IC50 [11]: 38.4 µM
CCCCC1(CCCC)C[C@@H](CNCCCn2ccnc2)[C@](C)(OC)OO1 (racemic),5.2,140,35,IC50 [8]: 10.1 µM; IC50 [9]: 2.5 µM; IC50 [10]: 3 µM; IC50 [11]: 3.2 µM
C=CCO[C@@]1(C(F)(F)F)O[C@@H]2O[C@@]3(C)C[C@H]4[C@H](C)CC[C@@H](C1=C)[C@@]24OO3,,,,IC50 [5]: 5.5 to 12.4 µM
CO[C@@]1(C)OOC(c2ccccc2)(c2ccccc2)C[C@H]1COCc1cn(CCC[P+](c2ccccc2)(c2ccccc2)c2ccccc2)nn1 (racemic),13.8,280,24.3,IC50 [8]: 16.5 µM; IC50 [9]: 10 µM; IC50 [10]: 6 µM; IC50 [11]: 2.6 µM
